What was measured:
Assay in all cases: relative viability (nuclei count vs DMSO), 5 days (fraction); higher = more cells survive
Linifanib = compound: Cc1ccc(F)c(NC(=O)Nc2ccc(-c3cccc4[nH]nc(N)c34)cc2)c1 [Linifanib]
Summary of the method: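 Five library-drug doses spaced by √10 were pinned onto vehicle-anchored 1536-well plates of lung cancer cell lines that had been kept overnight at 37 °C. Cells went 5 days without medium change, then were fixed, permeabilised and Hoechst-stained together, imaged at 4× and counted by MetaXpress. Viability is the ratio of treated-well to vehicle-well nuclei, taken as a median over plates. Plates required control CV below 25% and at least one doubling.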

Linifanib + Trametinib = compound: Cc1ccc(F)c(NC(=O)Nc2ccc(-c3cccc4[nH]nc(N)c34)cc2)c1 [Linifanib] + CC(=O)Nc1cccc(-n2c(=O)n(C3CC3)c(=O)c3c(Nc4ccc(I)cc4F)n(C)c(=O)c(C)c32)c1 [Trametinib] (partner 0.02 µM)
Summary of the method: (§1)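 For relative viability, nuclei counts in treated wells were divided by those in vehicle wells. Lung cancer cell lines had been pin-tool dosed in 1536-well plates the day after seeding and cultured for 5 days, then fixed and stained in one step (final 0.05% Triton X-100, 1% formaldehyde, 1 ug/ml Hoechst) and imaged at 4×. Doses were one drug alone or a fixed anchor-drug dose plus five library-drug doses (not always all listed) in √10 steps, and values are duplicate-plate medians.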

Linifanib + Palbociclib = compound: Cc1ccc(F)c(NC(=O)Nc2ccc(-c3cccc4[nH]nc(N)c34)cc2)c1 [Linifanib] + CC(=O)c1c(C)c2cnc(Nc3ccc(N4CCNCC4)cn3)nc2n(C2CCCC2)c1=O [Palbociclib] (partner 0.5 µM)
Summary of the method: as §1

Linifanib + Luminespib = compound: Cc1ccc(F)c(NC(=O)Nc2ccc(-c3cccc4[nH]nc(N)c34)cc2)c1 [Linifanib] + CCNC(=O)c1noc(-c2cc(C(C)C)c(O)cc2O)c1-c1ccc(CN2CCOCC2)cc1 [Luminespib] (partner 0.01 µM)
Summary of the method: as §1

Linifanib + OSI-027 = compound: Cc1ccc(F)c(NC(=O)Nc2ccc(-c3cccc4[nH]nc(N)c34)cc2)c1 [Linifanib] + COc1cccc2cc(-c3nc([C@H]4CC[C@H](C(=O)O)CC4)n4ncnc(N)c34)[nH]c12 [OSI-027] (partner 0.5 µM)
Summary of the method: as §1

Linifanib + Tozasertib = compound: Cc1ccc(F)c(NC(=O)Nc2ccc(-c3cccc4[nH]nc(N)c34)cc2)c1 [Linifanib] + Cc1cc(Nc2cc(N3CCN(C)CC3)nc(Sc3ccc(NC(=O)C4CC4)cc3)n2)n[nH]1 [Tozasertib] (partner 0.1 µM)
Summary of the method: as §1

Linifanib + Dasatinib = compound: Cc1ccc(F)c(NC(=O)Nc2ccc(-c3cccc4[nH]nc(N)c34)cc2)c1 [Linifanib] + Cc1nc(Nc2ncc(C(=O)Nc3c(C)cccc3Cl)s2)cc(N2CCN(CCO)CC2)n1 [Dasatinib] (partner 0.075 µM)
Summary of the method: as §1

Linifanib + Phenformin = compound: Cc1ccc(F)c(NC(=O)Nc2ccc(-c3cccc4[nH]nc(N)c34)cc2)c1 [Linifanib] + N=C(N)NC(=N)NCCc1ccccc1 [Phenformin] (partner 250 µM)
Summary of the method: as §1

Linifanib + AZD7762 = compound: Cc1ccc(F)c(NC(=O)Nc2ccc(-c3cccc4[nH]nc(N)c34)cc2)c1 [Linifanib] + NC(=O)Nc1cc(-c2cccc(F)c2)sc1C(=O)N[C@H]1CCCNC1 [AZD7762] (partner 0.2 µM)
Summary of the method: as §1

Linifanib + Pemetrexed = compound: Cc1ccc(F)c(NC(=O)Nc2ccc(-c3cccc4[nH]nc(N)c34)cc2)c1 [Linifanib] + Nc1nc2[nH]cc(CCc3ccc(C(=O)N[C@@H](CCC(=O)O)C(=O)O)cc3)c2c(=O)[nH]1 [Pemetrexed] (partner 0.2 µM)
Summary of the method: as §1

Linifanib + Decitabine = compound: Cc1ccc(F)c(NC(=O)Nc2ccc(-c3cccc4[nH]nc(N)c34)cc2)c1 [Linifanib] + Nc1ncn([C@H]2C[C@H](O)[C@@H](CO)O2)c(=O)n1 [Decitabine] (partner 2 µM)
Summary of the method: as §1

Linifanib + Vorinostat = compound: Cc1ccc(F)c(NC(=O)Nc2ccc(-c3cccc4[nH]nc(N)c34)cc2)c1 [Linifanib] + O=C(CCCCCCC(=O)Nc1ccccc1)NO [Vorinostat] (partner 1 µM)
Summary of the method: as §1

Linifanib + Olaparib = compound: Cc1ccc(F)c(NC(=O)Nc2ccc(-c3cccc4[nH]nc(N)c34)cc2)c1 [Linifanib] + O=C(c1cc(Cc2n[nH]c(=O)c3ccccc23)ccc1F)N1CCN(C(=O)C2CC2)CC1 [Olaparib] (partner 8 µM)
Summary of the method: as §1

Linifanib + Bortezomib = compound: Cc1ccc(F)c(NC(=O)Nc2ccc(-c3cccc4[nH]nc(N)c34)cc2)c1 [Linifanib] + CC(C)C[C@H](NC(=O)[C@H](Cc1ccccc1)NC(=O)c1cnccn1)B(O)O [Bortezomib] (partner 0.002 µM)
Summary of the method: as §1

Linifanib + Navitoclax = compound: Cc1ccc(F)c(NC(=O)Nc2ccc(-c3cccc4[nH]nc(N)c34)cc2)c1 [Linifanib] + CC1(C)CCC(c2ccc(Cl)cc2)=C(CN2CCN(c3ccc(C(=O)NS(=O)(=O)c4ccc(N[C@H](CCN5CCOCC5)CSc5ccccc5)c(S(=O)(=O)C(F)(F)F)c4)cc3)CC2)C1 [Navitoclax] (partner 0.5 µM)
Summary of the method: as §1

Linifanib + Foretinib = compound: Cc1ccc(F)c(NC(=O)Nc2ccc(-c3cccc4[nH]nc(N)c34)cc2)c1 [Linifanib] + COc1cc2c(Oc3ccc(NC(=O)C4(C(=O)Nc5ccc(F)cc5)CC4)cc3F)ccnc2cc1OCCCN1CCOCC1 [Foretinib] (partner 0.25 µM)
Summary of the method: as §1

Linifanib + Lapatinib = compound: Cc1ccc(F)c(NC(=O)Nc2ccc(-c3cccc4[nH]nc(N)c34)cc2)c1 [Linifanib] + CS(=O)(=O)CCNCc1ccc(-c2ccc3ncnc(Nc4ccc(OCc5cccc(F)c5)c(Cl)c4)c3c2)o1 [Lapatinib] (partner 2 µM)
Summary of the method: as §1

Linifanib + Pictilisib = compound: Cc1ccc(F)c(NC(=O)Nc2ccc(-c3cccc4[nH]nc(N)c34)cc2)c1 [Linifanib] + CS(=O)(=O)N1CCN(Cc2cc3nc(-c4cccc5[nH]ncc45)nc(N4CCOCC4)c3s2)CC1 [Pictilisib] (partner 1 µM)
Summary of the method: as §1

Linifanib + Crizotinib = compound: Cc1ccc(F)c(NC(=O)Nc2ccc(-c3cccc4[nH]nc(N)c34)cc2)c1 [Linifanib] + C[C@@H](Oc1cc(-c2cnn(C3CCNCC3)c2)cnc1N)c1c(Cl)ccc(F)c1Cl [Crizotinib] (partner 1 µM)
Summary of the method: as §1

Linifanib + Linsitinib = compound: Cc1ccc(F)c(NC(=O)Nc2ccc(-c3cccc4[nH]nc(N)c34)cc2)c1 [Linifanib] + C[C@]1(O)C[C@@H](c2nc(-c3ccc4ccc(-c5ccccc5)nc4c3)c3c(N)nccn32)C1 [Linsitinib] (partner 1 µM)
Summary of the method: as §1

Linifanib + Alpelisib = compound: Cc1ccc(F)c(NC(=O)Nc2ccc(-c3cccc4[nH]nc(N)c34)cc2)c1 [Linifanib] + Cc1nc(NC(=O)N2CCC[C@H]2C(N)=O)sc1-c1ccnc(C(C)(C)C(F)(F)F)c1 [Alpelisib] (partner 2 µM)
Summary of the method: as §1

NCI-H522
relative viability (Linifanib; 0.03162 µM): 0.943 | relative viability (Linifanib; 0.1 µM): 1.02 | relative viability (Linifanib; 0.3162 µM): 0.995 | relative viability (Linifanib + Trametinib; first compound 0.03162 µM): 0.643 | relative viability (Linifanib + Trametinib; first compound 0.1 µM): 0.713 | relative viability (Linifanib + Trametinib; first compound 0.3162 µM): 0.736 | relative viability (Linifanib + Palbociclib; first compound 0.03162 µM): 1.05 | relative viability (Linifanib + Palbociclib; first compound 0.1 µM): 0.954 | relative viability (Linifanib + Palbociclib; first compound 0.3162 µM): 0.995 | relative viability (Linifanib + Luminespib; first compound 0.03162 µM): 1.18 | relative viability (Linifanib + Luminespib; first compound 0.1 µM): 0.98 | relative viability (Linifanib + Luminespib; first compound 0.3162 µM): 1.13 | relative viability (Linifanib + OSI-027; first compound 0.03162 µM): 0.815 | relative viability (Linifanib + OSI-027; first compound 0.1 µM): 0.721 | relative viability (Linifanib + OSI-027; first compound 0.3162 µM): 0.719 | relative viability (Linifanib + Tozasertib; first compound 0.03162 µM): 0.556 | relative viability (Linifanib + Tozasertib; first compound 0.1 µM): 0.542 | relative viability (Linifanib + Tozasertib; first compound 0.3162 µM): 0.474 | relative viability (Linifanib + Dasatinib; first compound 0.03162 µM): 0.862 | relative viability (Linifanib + Dasatinib; first compound 0.1 µM): 0.868 | relative viability (Linifanib + Dasatinib; first compound 0.3162 µM): 0.871 | relative viability (Linifanib + Phenformin; first compound 0.03162 µM): 0.716 | relative viability (Linifanib + Phenformin; first compound 0.1 µM): 0.647 | relative viability (Linifanib + Phenformin; first compound 0.3162 µM): 0.551 | relative viability (Linifanib + AZD7762; first compound 0.03162 µM): 0.879 | relative viability (Linifanib + AZD7762; first compound 0.1 µM): 0.804 | relative viability (Linifanib + AZD7762; first compound 0.3162 µM): 0.809 | relative viability (Linifanib + Pemetrexed; first compound 0.03162 µM): 0.945 | relative viability (Linifanib + Pemetrexed; first compound 0.1 µM): 0.798 | relative viability (Linifanib + Pemetrexed; first compound 0.3162 µM): 1.06 | relative viability (Linifanib + Decitabine; first compound 0.03162 µM): 0.613 | relative viability (Linifanib + Decitabine; first compound 0.1 µM): 0.703 | relative viability (Linifanib + Decitabine; first compound 0.3162 µM): 0.759 | relative viability (Linifanib + Vorinostat; first compound 0.03162 µM): 0.851 | relative viability (Linifanib + Vorinostat; first compound 0.1 µM): 0.88 | relative viability (Linifanib + Vorinostat; first compound 0.3162 µM): 0.929 | relative viability (Linifanib + Olaparib; first compound 0.03162 µM): 0.555 | relative viability (Linifanib + Olaparib; first compound 0.1 µM): 0.693 | relative viability (Linifanib + Olaparib; first compound 0.3162 µM): 0.667

EBC-1
relative viability (Linifanib; 0.03162 µM): 1.02 | relative viability (Linifanib; 0.1 µM): 1.14 | relative viability (Linifanib; 0.3162 µM): 0.969 | relative viability (Linifanib + Bortezomib; first compound 0.03162 µM): 0.551 | relative viability (Linifanib + Bortezomib; first compound 0.1 µM): 0.628 | relative viability (Linifanib + Bortezomib; first compound 0.3162 µM): 0.574 | relative viability (Linifanib + Navitoclax; first compound 0.03162 µM): 0.472 | relative viability (Linifanib + Navitoclax; first compound 0.1 µM): 0.412 | relative viability (Linifanib + Navitoclax; first compound 0.3162 µM): 0.387 | relative viability (Linifanib + Foretinib; first compound 0.03162 µM): 0.115 | relative viability (Linifanib + Foretinib; first compound 0.1 µM): 0.103 | relative viability (Linifanib + Foretinib; first compound 0.3162 µM): 0.112 | relative viability (Linifanib + Lapatinib; first compound 0.03162 µM): 0.207 | relative viability (Linifanib + Lapatinib; first compound 0.1 µM): 0.21 | relative viability (Linifanib + Lapatinib; first compound 0.3162 µM): 0.214 | relative viability (Linifanib + Pictilisib; first compound 0.03162 µM): 0.372 | relative viability (Linifanib + Pictilisib; first compound 0.1 µM): 0.486 | relative viability (Linifanib + Pictilisib; first compound 0.3162 µM): 0.477 | relative viability (Linifanib + Crizotinib; first compound 0.03162 µM): 0.205 | relative viability (Linifanib + Crizotinib; first compound 0.1 µM): 0.208 | relative viability (Linifanib + Crizotinib; first compound 0.3162 µM): 0.224 | relative viability (Linifanib + Linsitinib; first compound 0.03162 µM): 0.996 | relative viability (Linifanib + Linsitinib; first compound 0.1 µM): 0.864 | relative viability (Linifanib + Linsitinib; first compound 0.3162 µM): 0.731 | relative viability (Linifanib + Alpelisib; first compound 0.03162 µM): 0.809 | relative viability (Linifanib + Alpelisib; first compound 0.1 µM): 1.06 | relative viability (Linifanib + Alpelisib; first compound 0.3162 µM): 0.791 | relative viability (Linifanib + Olaparib; first compound 0.03162 µM): 0.698 | relative viability (Linifanib + Olaparib; first compound 0.1 µM): 0.757 | relative viability (Linifanib + Olaparib; first compound 0.3162 µM): 0.73
